According to PubChem BioAssay AID743026 (Vanderbilt Specialized Chemistry Center, 2013):
Calls of active or inactive are those of the source.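 Rule for the calls: active = IC50 under 10 µM against human M5, lowering the acetylcholine-driven calcium signal; inactive = the rest.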

Molecular target: Muscarinic acetylcholine receptor M5 (Homo sapiens) (UniProt P08912)
Test: potency of M5 ACh response inhibition – cell-based, concentration-response curves, human M5, dose response (AID 743026)
Conditions: CHO-K1 hM5, ACh EC80 calcium flux, Fluo-4; for % of max ACh response: at 30 µM (top of the series)

Chain of Muscarinic acetylcholine receptor M5 (Homo sapiens) (P08912 whole entry, looked up): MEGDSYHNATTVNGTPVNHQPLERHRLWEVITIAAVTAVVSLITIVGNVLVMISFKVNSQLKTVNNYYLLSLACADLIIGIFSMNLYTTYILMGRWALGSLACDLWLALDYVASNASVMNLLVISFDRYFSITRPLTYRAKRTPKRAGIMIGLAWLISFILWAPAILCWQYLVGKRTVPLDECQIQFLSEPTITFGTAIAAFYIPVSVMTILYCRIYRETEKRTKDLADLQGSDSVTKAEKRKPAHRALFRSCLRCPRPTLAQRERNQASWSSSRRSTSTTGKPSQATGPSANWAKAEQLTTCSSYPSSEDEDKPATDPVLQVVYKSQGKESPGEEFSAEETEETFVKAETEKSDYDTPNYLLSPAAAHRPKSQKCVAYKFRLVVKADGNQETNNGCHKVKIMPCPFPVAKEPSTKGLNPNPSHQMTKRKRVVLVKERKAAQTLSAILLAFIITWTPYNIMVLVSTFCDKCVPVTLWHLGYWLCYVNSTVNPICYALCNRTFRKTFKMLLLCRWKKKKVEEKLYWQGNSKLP

SMILES: O=C(c1ccc(F)cc1)N1CCN2C(=O)c3ccccc3C12c1ccccc1 (centres undefined)
- IC50: 3430 nM

SMILES: O=C1c2ncccc2C2(c3ccccc3)NCCN12 (centres undefined)
- % of max ACh response: inactive

SMILES: Cc1ccc(C23c4ccccc4C(=O)N2CCN3C(=O)c2ccc(F)c(F)c2)cc1 (centres undefined)
- IC50: 2620 nM

SMILES: O=C(c1cc(F)cc(F)c1)N1CCN2C(=O)c3ccccc3C12c1ccc(Cl)cc1 (centres undefined)
- IC50: 1070 nM

SMILES: Cc1ccc(C23c4ccccc4C(=O)N2CCN3C(=O)c2ccc(OC(F)(F)F)cc2)cc1 (centres undefined)
- IC50: 3470 nM

SMILES: COc1ccc(C23c4ccccc4C(=O)N2CCN3C(=O)c2ccc(OC(F)(F)F)cc2)cc1 (centres undefined)
- IC50: 6740 nM

SMILES: O=C(c1cc(Cl)cc(Cl)c1)N1CCN2C(=O)c3ccccc3C12c1ccccc1 (centres undefined)
- IC50: 5810 nM

SMILES: Cc1ccc(C(=O)N2CCN3C(=O)c4ccccc4C23c2ccc(Cl)cc2)cc1 (centres undefined)
- IC50: 4160 nM

SMILES: O=C1CCC2(c3ccccc3)N1CCN2C(=O)c1ccc(F)cc1 (centres undefined)
- % of max ACh response: inactive

SMILES: C=CCOc1ccc(C23c4ccccc4C(=O)N2CCN3C(=O)c2ccc(F)c(F)c2)cc1 (centres undefined)
- IC50: 8930 nM

SMILES: O=C(c1ccc(OC(F)(F)F)cc1)N1CCN2C(=O)c3ccccc3C12c1ccc(Cl)cc1 (centres undefined)
- IC50: 2360 nM

SMILES: O=C(c1ccc(F)c(F)c1)N1CCN2C(=O)c3ccccc3C12c1ccccc1 (centres undefined)
- IC50: 1020 nM

SMILES: O=C(c1ccc(F)c(F)c1)N1CCN2C(=O)c3ncccc3C12c1ccccc1 (centres undefined)
- % of max ACh response: inactive

SMILES: O=C(c1ccc(F)cc1)N1CCN2C(=O)c3ncccc3C12c1ccccc1 (centres undefined)
- % of max ACh response: inactive

SMILES: O=C(c1cccc(C(F)(F)F)c1)N1CCN2C(=O)c3ccccc3C12c1ccc(F)cc1 (centres undefined)
- IC50: 2090 nM

SMILES: Cc1ccc(C23c4ccccc4C(=O)N2CCN3C(=O)c2ccc(SC(F)(F)F)cc2)cc1 (centres undefined)
- IC50: 4040 nM

SMILES: O=C(c1ccc(C(F)(F)F)cc1)N1CCN2C(=O)c3ccccc3C12c1ccc(Cl)cc1 (centres undefined)
- IC50: 2070 nM

SMILES: O=C(c1ccccc1)N1CCN2C(=O)c3ccccc3C12c1ccc(Cl)cc1 (centres undefined)
- IC50: 1630 nM

SMILES: O=C(c1ccc(C(F)(F)F)cc1)N1CCN2C(=O)c3ccccc3C12c1ccccc1 (centres undefined)
- IC50: 1950 nM

SMILES: CC(C)Oc1ccc(C(=O)N2CCN3C(=O)c4ccccc4C23c2ccc(Cl)cc2)cc1 (centres undefined)
- IC50: 790 nM

SMILES: O=C(c1ccc(SC(F)(F)F)cc1)N1CCN2C(=O)c3ccccc3C12c1ccccc1 (centres undefined)
- IC50: 1390 nM

SMILES: O=C(c1ccc(F)cc1)N1CCN2C(=O)c3ccccc3C12c1ccc(Cl)cc1 (centres undefined)
- % of max ACh response: inactive

SMILES: CSc1ccc(C23c4ccccc4C(=O)N2CCN3C(=O)c2ccc(F)c(F)c2)cc1 (centres undefined)
- IC50: 1510 nM

SMILES: C[C@H]1CN(C(=O)c2ccc(F)c(F)c2)[C@]2(c3ccc(Cl)cc3)c3ccccc3C(=O)N12
- % of max ACh response: inactive

SMILES: COc1ccc(C23c4ccccc4C(=O)N2CCN3C(=O)c2ccc(SC(F)(F)F)cc2)cc1 (centres undefined)
- IC50: 8060 nM

SMILES: C[C@H]1CN[C@]2(c3ccc(Cl)cc3)c3ccccc3C(=O)N12
- % of max ACh response: inactive

SMILES: O=C(c1cccc(C(F)(F)F)c1)N1CCN2C(=O)c3ccccc3C12c1ccc(Cl)cc1 (centres undefined)
- IC50: 4910 nM

SMILES: O=C(c1ccc(OC(F)F)cc1)N1CCN2C(=O)c3ccccc3C12c1ccc(Cl)cc1 (centres undefined)
- IC50: 4900 nM

SMILES: O=C(c1ccc2c(c1)OCO2)N1CCN2C(=O)c3ccccc3C12c1ccc(Cl)cc1 (centres undefined)
- IC50: 2120 nM

SMILES: O=C(c1ccc(F)c(F)c1)N1CCCC1(c1ccccc1)c1ccc(Cl)cc1 (centres undefined)
- % of max ACh response: inactive

SMILES: O=C1c2ccccc2C2(c3ccccc3)NCCN12 (centres undefined)
- % of max ACh response: inactive

SMILES: O=C(c1ccc(SC(F)(F)F)cc1)N1CCN2C(=O)c3ccccc3C12c1ccc(F)cc1 (centres undefined)
- IC50: 1290 nM

SMILES: O=C(c1ccc(OC(F)(F)F)cc1)N1CCN2C(=O)c3ccccc3C12c1ccccc1 (centres undefined)
- IC50: 4510 nM

SMILES: Cc1ccc(C23c4ccccc4C(=O)N2CCN3C(=O)c2cc(F)cc(F)c2)cc1 (centres undefined)
- IC50: 2340 nM

SMILES: COc1cccc(C(=O)N2CCN3C(=O)c4ccccc4C23c2ccc(Cl)cc2)c1 (centres undefined)
- IC50: 6580 nM

SMILES: COc1ccc(C23c4ccccc4C(=O)N2CCN3C(=O)c2ccc(F)c(F)c2)cc1 (centres undefined)
- IC50: 1260 nM

SMILES: O=C(c1cccc(C(F)(F)F)c1)N1CCN2C(=O)c3ccccc3C12c1ccccc1 (centres undefined)
- IC50: 3000 nM

SMILES: O=C(c1ccc(SC(F)(F)F)cc1)N1CCN2C(=O)c3ccccc3C12c1ccc(Cl)cc1 (centres undefined)
- IC50: 3100 nM

SMILES: O=C(c1cc(F)cc(F)c1)N1CCN2C(=O)c3ccccc3C12c1ccccc1 (centres undefined)
- IC50: 3840 nM
